Measurements taken from patent US20200291018A1, “TAM KINASE INHIBITORS” (SYROS PHARMACEUTICALS, INC., priority 2017, published 2020).

Legend:
MERTK = target: T1, MERTK (Homo sapiens, UniProt Q12866); test: TR-FRET kinase activity assay, MERTK; type: biochemical; conditions: for IC50: TR-FRET activity assay, ATP at Km, 60 minutes, read-out: Mer IC50; for Mer/Flt3 ratio (FLT3 IC50/Mer IC50): ratio calculated as FLT3 IC50/Mer IC50
T1 sequence (Q12866 21-999): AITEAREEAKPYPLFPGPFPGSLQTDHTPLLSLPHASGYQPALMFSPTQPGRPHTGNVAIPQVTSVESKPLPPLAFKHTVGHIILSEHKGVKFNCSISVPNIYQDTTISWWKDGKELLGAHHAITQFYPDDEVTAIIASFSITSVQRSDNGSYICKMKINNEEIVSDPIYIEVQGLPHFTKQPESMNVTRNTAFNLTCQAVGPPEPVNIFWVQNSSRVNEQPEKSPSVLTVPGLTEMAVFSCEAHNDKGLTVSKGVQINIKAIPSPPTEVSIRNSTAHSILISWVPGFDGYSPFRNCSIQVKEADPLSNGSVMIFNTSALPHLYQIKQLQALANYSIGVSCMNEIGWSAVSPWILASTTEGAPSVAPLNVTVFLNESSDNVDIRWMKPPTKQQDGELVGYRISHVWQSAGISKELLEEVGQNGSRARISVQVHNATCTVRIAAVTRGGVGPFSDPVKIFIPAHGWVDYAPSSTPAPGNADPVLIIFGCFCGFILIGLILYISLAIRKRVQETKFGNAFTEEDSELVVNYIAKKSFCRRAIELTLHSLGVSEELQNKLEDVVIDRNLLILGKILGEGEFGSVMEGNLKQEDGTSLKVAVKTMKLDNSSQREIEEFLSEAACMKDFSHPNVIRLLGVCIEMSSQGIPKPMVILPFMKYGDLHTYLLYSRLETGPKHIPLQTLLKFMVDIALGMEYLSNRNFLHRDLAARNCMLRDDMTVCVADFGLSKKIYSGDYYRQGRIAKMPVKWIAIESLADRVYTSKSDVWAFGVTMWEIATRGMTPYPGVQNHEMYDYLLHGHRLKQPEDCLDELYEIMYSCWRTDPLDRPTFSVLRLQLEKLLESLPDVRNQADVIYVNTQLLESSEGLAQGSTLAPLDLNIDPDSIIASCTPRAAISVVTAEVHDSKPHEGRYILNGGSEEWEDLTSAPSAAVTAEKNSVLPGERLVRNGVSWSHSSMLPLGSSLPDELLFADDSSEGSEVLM
Description: (§1) IC50 values for compound inhibition of AXL, FLT3, MERTK and TYRO3 activity were determined using a TR-FRET activity assay. A peptide substrate with a fluorescent label is phosphorylated on a tyrosine by each enzyme, where the now phosphorylated product is bound by a Europium-labeled antibody specific to that phosphorylation site. The proximity between the antibody and the substrate gives a signal known as TR-FRET. As the enzyme is inhibited by compound, less phosphorylated peptide product is made, causing a decrease in overall signal.
(§2) Activity assays were performed in a 384-well, small volume, black microplates in an active enzyme volume of 10 uL and final developed volume of 20 uL. Final assay conditions are 50 mM HEPES pH 7.5, 10 mM MgCl2, 1 mM EGTA, 0.01% Brij 35 and 1 mM DTT, all at RT. Enzyme, substrate-labeled peptide and compound are mixed, and then the reaction is initiated with the addition of ATP at Km concentration for each enzyme. The reaction is allowed to run 60 minutes and then quenched with a 12.5 mM EDTA (ethylenediamine tetraacetic acid) solution. The plate is then developed with the addition of Europium-labeled antibody for a final volume of 20 uL and is then incubated for 30 minutes in darkness. Plates are read in a PHERASTAR® plate reader. Data are analyzed in GraphPad PRISM.

FLT3 = target: T2, FLT3 (Homo sapiens, UniProt P36888); test: TR-FRET kinase activity assay, FLT3; type: biochemical; conditions: ATP at Km, 60 minutes
T2 sequence (P36888 27-993): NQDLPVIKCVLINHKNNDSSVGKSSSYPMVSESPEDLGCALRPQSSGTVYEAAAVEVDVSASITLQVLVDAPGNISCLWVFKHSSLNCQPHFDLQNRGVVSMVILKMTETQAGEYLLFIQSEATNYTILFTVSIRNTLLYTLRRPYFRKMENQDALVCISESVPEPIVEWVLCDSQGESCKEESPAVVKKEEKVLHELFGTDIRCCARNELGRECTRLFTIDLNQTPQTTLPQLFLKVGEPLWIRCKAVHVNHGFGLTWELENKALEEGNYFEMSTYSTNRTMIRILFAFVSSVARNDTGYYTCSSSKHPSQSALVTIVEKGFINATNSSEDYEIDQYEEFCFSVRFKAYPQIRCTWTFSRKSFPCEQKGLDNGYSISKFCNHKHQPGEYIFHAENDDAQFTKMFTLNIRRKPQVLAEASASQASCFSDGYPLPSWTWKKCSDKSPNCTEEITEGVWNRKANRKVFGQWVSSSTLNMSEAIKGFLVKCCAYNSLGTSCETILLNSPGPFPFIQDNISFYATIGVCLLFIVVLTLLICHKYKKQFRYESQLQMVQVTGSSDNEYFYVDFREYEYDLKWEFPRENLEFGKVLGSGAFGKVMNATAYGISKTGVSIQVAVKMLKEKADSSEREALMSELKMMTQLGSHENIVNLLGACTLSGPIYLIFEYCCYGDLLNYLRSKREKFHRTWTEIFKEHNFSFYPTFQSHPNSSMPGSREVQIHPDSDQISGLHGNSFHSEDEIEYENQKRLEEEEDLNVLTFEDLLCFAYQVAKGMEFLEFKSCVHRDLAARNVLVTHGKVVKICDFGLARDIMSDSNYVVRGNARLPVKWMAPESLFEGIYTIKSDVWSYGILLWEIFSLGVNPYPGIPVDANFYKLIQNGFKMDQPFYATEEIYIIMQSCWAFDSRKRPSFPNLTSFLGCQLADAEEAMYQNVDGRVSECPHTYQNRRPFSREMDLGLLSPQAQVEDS
Description: as §1, §2

Row | SMILES | IC50 (MERTK) [µM] | Mer/Flt3 ratio (FLT3 IC50/Mer IC50) (MERTK) | IC50 (FLT3) [µM]
1 | CCOc1ncc([C@H]2CC[C@H](O)CC2)c2nc(N[C@@H](C)COC)ncc12 [Compound 273] | ≤ 0.1 | +++ (a ratio of >100) | 1 to 10
2 | O[C@H]1CC[C@H](c2cnc(OC3CCNCC3)c3cnc(Nc4cccc(F)c4)nc32)CC1 [Compound 270] | ≤ 0.1 | + (a ratio of >2.0 and <10) | ≤ 0.1
3 | O[C@H]1CC[C@H](c2cnc(OC3CCNCC3)c3cnc(Nc4cccc(Cl)c4)nc32)CC1 [Compound 205] | ≤ 0.1 | ++ (a ratio of between 10 and 100) | ≤ 0.1
4 | O[C@H]1CC[C@H](c2cnc(OC3CCNCC3)c3cnc(Nc4ccc(F)cc4)nc32)CC1 [Compound 269] | ≤ 0.1 | + (a ratio of >2.0 and <10) | ≤ 0.1
5 | CC[C@H](C)Nc1ncc2c(=O)n(CC34CCC(N)(CC3)CC4)cc([C@H]3CC[C@H](O)CC3)c2n1 [Compound 251] | ≤ 0.1 | +++ (a ratio of >100) | 1 to 10
6 | CCCCNc1cc2c(cn1)c(OC1CCNCC1)ncc2[C@H]1CC[C@H](O)CC1 [Compound 107] | ≤ 0.1 | ++ (a ratio of between 10 and 100) | ≤ 0.1
7 | CCOc1ncc(C2CCN(C)CC2)c2nc(N[C@@H](C)CC)ncc12 [Compound 215] | 0.1 to 1 | ++ (a ratio of between 10 and 100) | 1 to 10
8 | CC[C@H](C)Nc1ncc2c(=O)n([C@H]3CC[C@H](N(C)C)C3)cc([C@H]3CC[C@H](O)CC3)c2n1 [Compound 266] | ≤ 0.1 | +++ (a ratio of >100) | 1 to 10
9 | CCC[C@@H](C)Nc1ncc2c(OC3CCNCC3)ncc([C@H]3CC[C@H](O)CC3)c2n1 [Compound 196] | ≤ 0.1 | +++ (a ratio of >100) | 1 to 10
10 | CC[C@H](C)Nc1ncc2c(OC3C[C@H]4CC[C@@H](C3)O4)ncc([C@H]3CC[C@H](O)CC3)c2n1 (stereo partly drawn) [Compound 237] | ≤ 0.1 | +++ (a ratio of >100) | 1 to 10
11 | CCCC(C)Nc1ncc2c(OC3CCNCC3)ncc([C@H]3CC[C@H](O)CC3)c2n1 (stereo partly drawn) [Compound 203] | ≤ 0.1 | + (a ratio of >2.0 and <10) | ≤ 0.1
12 | CCOc1ncc(CC2CCN(C(=O)OC(C)(C)C)CC2)c2nc(N[C@@H](C)CC)ncc12 [Compound 254] | 1 to 10 | + (a ratio of >2.0 and <10) | 1 to 10
13 | O[C@H]1CC[C@H](c2cnc(OC3CCNCC3)c3cnc(NCCC(F)(F)F)nc32)CC1 [Compound 224] | ≤ 0.1 | ++ (a ratio of between 10 and 100) | ≤ 0.1
14 | CCOc1ncc(CC2CCNCC2)c2nc(N[C@@H](C)CC)ncc12 [Compound 236] | ≤ 0.1 | + (a ratio of >2.0 and <10) | 0.1 to 1
15 | CC[C@H](C)Nc1ncc2c(OC3C[C@@H](C)O[C@@H](C)C3)ncc([C@H]3CC[C@H](O)CC3)c2n1 (stereo partly drawn) [Compound 275] | ≤ 0.1 | +++ (a ratio of >100) | 1 to 10
16 | CC[C@H](C)Nc1ncc2c(=O)n(C[C@H]3COCCN3C)cc([C@H]3CC[C@H](O)CC3)c2n1 [Compound 265] | ≤ 0.1 | +++ (a ratio of >100) | 1 to 10
17 | CC[C@H](C)Nc1ncc2c(OC3C[C@@H](C)O[C@@H](C)C3)ncc([C@H]3CC[C@H](O)CC3)c2n1 (stereo partly drawn) [Compound 247] | 0.1 to 1 | ++ (a ratio of between 10 and 100) | 1 to 10
18 | CC[C@H](C)Nc1ncc2c(OCC(F)(F)F)ncc([C@H]3CC[C@H](O)CC3)c2n1 [Compound 245] | ≤ 0.1 | +++ (a ratio of >100) | 0.1 to 1
19 | CCc1ncc([C@H]2CC[C@H](O)CC2)c2nc(N[C@@H](C)CC)ncc12 [Compound 244] | ≤ 0.1 | +++ (a ratio of >100) | 1 to 10
20 | CC[C@H](C)Nc1ncc2c(OC3CCN(C)CC3)ncc([C@H]3CC[C@H](O)CC3)c2n1 [Compound 221] | ≤ 0.1 | +++ (a ratio of >100) | 1 to 10
21 | CCCC(C)Nc1ncc2c(=O)n(C3CCN(C4COC4)CC3)cc([C@H]3CC[C@H](O)CC3)c2n1 (stereo partly drawn) [Compound 201] | 0.1 to 1 | +++ (a ratio of >100) | 1 to 10
22 | CC(C)Nc1ncc2c(OC3CCOCC3)ncc(-c3cccc(CC(=O)O)c3)c2n1 [Compound 276] | 1 to 10 | ++ (a ratio of between 10 and 100) | 1 to 10
23 | CC[C@H](C)Nc1ncc2c(Cl)ncc([C@H]3CC[C@H](O)CC3)c2n1 [Compound 230] | ≤ 0.1 | +++ (a ratio of >100) | 1 to 10
24 | O[C@H]1CC[C@H](c2cnc(OC3CCOCC3)c3cnc(N[C@H]4CCNC4)nc32)CC1 [Compound 277] | 1 to 10 | NS (a ratio of ≤2.0) | 1 to 10
25 | CCC[C@@H](C)Nc1ncc2c(OC3CCNCC3)ncc([C@H]3CC[C@@H](O)CC3)c2n1 [Compound 204] | ≤ 0.1 | ++ (a ratio of between 10 and 100) | 0.1 to 1
26 | COC(=O)c1ccc(Nc2ncc3c(OC4CCNCC4)ncc([C@H]4CC[C@H](O)CC4)c3n2)cc1 [Compound 272] | ≤ 0.1 | + (a ratio of >2.0 and <10) | 0.1 to 1
27 | CCCC(C)Nc1ncc2c(=O)n([C@H]3CCN(C)C[C@@H]3F)cc([C@H]3CC[C@H](O)CC3)c2n1 (stereo partly drawn) [Compound 199] | ≤ 0.1 | +++ (a ratio of >100) | 1 to 10
28 | CC[C@H](C)Nc1ncc2c(OC3CCN(C)CC3)ncc([C@H]3CC[C@H](O)CC3)c2n1 [Compound 239] | ≤ 0.1 | +++ (a ratio of >100) | 1 to 10
